Test results taken from patent publication US20190083498A1, “THERAPIES FOR HEMATOLOGIC MALIGNANCIES” (GILEAD CALISTOGA LLC, priority 2008, published 2019).

What was measured:
LB cells = test: Subcutaneous human MM xenograft model; format: in vivo
Protocol: CB17 SCID mice (48-54 days old) were purchased from Charles River Laboratories (Wilmington, Mass.). All animal studies were conducted according to protocols approved by the Animal Ethics Committee of the Dana-Farber Cancer Institute. Mice were inoculated subcutaneously in the right flank with 3×10^6 LB cells in 100 μL RPMI-1640. When tumors were palpable, mice were assigned into the treatment groups receiving 10 mg/kg or 30 mg/kg gavages twice daily; and 7 mice in the control group receiving vehicle alone. Caliper measurements of the longest perpendicular tumor diameters were performed every alternate day to estimate the tumor volume using the following formula representing the 3D volume of an ellipse: 4/3× (width/2)2× (length/2). Animals were sacrificed when tumors reached 2 cm or the mice appeared moribund. Survival was evaluated from the first day of treatment until death. […] The images were captured with a canon IXY digital 700 camera. Ex vivo analysis of tumor images was captured with a LEICA DM IL microscope and LEICA DFC300 FX camera at 40 u/0.60 (Leica, Heidelberg, Germany).
Mean tumor volume was calculated as in Materials and Methods, FIG. 36A. Error bars represent SD (±).
Tumors harvested from Compound II (30 mg/kg) treated mouse (right panel) and control mouse (left panel) were subjected to immuno-histochemistric analysis using CD31 and P-AKT Abs. CD31 and P-AKT positive cells are dark brown, FIG. 36D.
Survival was evaluated from the first day of treatment until sacrifice using Kaplan-Meier curves, FIG. 36C.
Tumor tissues were harvested from mice treated with control vehicle or Compound II (30 mg/kg). Protein levels of phosphorylated of PDK-1 and AKT (Ser473) were determined by western blotting of cell lysates, FIG. 36E. Actin was used as a loading control.

INA-6 cells = test: SCID-hu model, INA-6 cells in human bone chip, serum shuIL-6R ELISA; format: in vivo, SCID mice; details: 10 or 30 mg/kg daily for 4 weeks
Protocol: Human fetal bone grafts were implanted into CB17 SCID-mice (SCID-hu). Four weeks following bone implantation, 2.5×10^6 INA-6 cells were injected directly into the human BM cavity in the graft in a final volume of 100 μl of RPMI-1640 medium. An increase in the levels of soluble human IL-6 receptor (shulL-6R) from INA-6 cells was used as an indicator of MM cell growth and burden of disease in SCID-hu mice. Mice developed measurable serum shulL-6R approximately 4 weeks following INA-6 cell injection, and then received either 10 or 30 mg/kg drug or vehicle alone daily for […]. Blood samples were collected and assessed for shulL-6R levels using an enzyme-linked immunosorbent assay (ELISA, R&D Systems. Minneapolis Minn.).
Growth of INA-6 cells engrafted in human bone chips in SCID mice was monitored by serial serum measurements of shulL-6R. […] Error bars indicate SD (±).
In order to examine the activity of compound II on MM cell growth in the context of the human BM microenvironment in vivo, a SCID-hu model was used in which IL-6 dependent INA-6 cells are directly injected into a human bone chip implanted subcutaneously in SCID-mice. This model recapitulates the human BM microenvironment with human IL-6/BMSC-dependent growth of INA-6 human MM cells. These SCID-hu mice were treated with compound II or vehicle alone daily for 4 weeks, and serum shulL-6R monitored as a marker tumor burden. […]

Class III PI3K hVPS34 = Class III PI3K hVPS34 (Homo sapiens, UniProt Q8NEB9); details: read-out: Class III PI3K, IC50 hVPS34; InvitroGen Adapta assay
class II PI3K CIIbeta = class II PI3K CIIbeta (Homo sapiens, UniProt O00750); test: IC50 profile across kinases, InvitroGen Adapta assay; format: biochemical
INA-6 and LB cells = test: Growth of MM cells treated with 3-MA; format: cell-based, human; details: up to 100 μM; 24 h
Protocol: P110 δ positive LB cells (♦) were treated with 3-MA (0-100 μM) for 24 h. Data represent means (±SD) of triplicate cultures.

[1] = tested on: CLL cells with or without StromaNKTert; test: CLL cell viability/apoptosis in stromal co-culture, Annexin V/PI FACS; format: cell-based, human; details: 100 nM alone; two patients; 24 hours
Protocol: CLL cell and stromal cell co-cultures: CLL cells were cultured under standardized conditions on stromal cell lines or primary NLC. Briefly, stromal cells were seeded one day prior to each experiment onto 24-well plates (Corning Life Sciences) at a concentration of 3×10^5 cells/mL/well and incubated at 37° C. in 5% CO2. Stromal cell confluence was confirmed by phase contrast microscopy, and CLL cells were then added onto the stromal cell layer at a concentration of 3×10^6 cells/mL. Cultures were then treated with compounds for the specified time periods. CLL cells were removed for analysis by gentle pipetting with media, and were then washed in PBS prior to analysis. A 24-hour co-culture time point was used unless otherwise indicated.
Cell viability testing and reagents: CLL cell viability was determined by analysis of Annexin V-FITC (BD Biosciences, San Diego, Calif.) and Propidium Iodine (PI) (Sigma) by FACS.
To determine whether PI3K inhibition increased the sensitivity of stroma-exposed CLL cells by increasing priming, PB-derived CLL cells cultured with or without StromaNKTert cells for 24 hours and were examined using Annexin-PI and BH3 profiling. […] Stromal co-culture of four CLL patient samples led to protection from apoptosis in untreated cells.

Sequence of class II PI3K CIIbeta (O00750 whole entry): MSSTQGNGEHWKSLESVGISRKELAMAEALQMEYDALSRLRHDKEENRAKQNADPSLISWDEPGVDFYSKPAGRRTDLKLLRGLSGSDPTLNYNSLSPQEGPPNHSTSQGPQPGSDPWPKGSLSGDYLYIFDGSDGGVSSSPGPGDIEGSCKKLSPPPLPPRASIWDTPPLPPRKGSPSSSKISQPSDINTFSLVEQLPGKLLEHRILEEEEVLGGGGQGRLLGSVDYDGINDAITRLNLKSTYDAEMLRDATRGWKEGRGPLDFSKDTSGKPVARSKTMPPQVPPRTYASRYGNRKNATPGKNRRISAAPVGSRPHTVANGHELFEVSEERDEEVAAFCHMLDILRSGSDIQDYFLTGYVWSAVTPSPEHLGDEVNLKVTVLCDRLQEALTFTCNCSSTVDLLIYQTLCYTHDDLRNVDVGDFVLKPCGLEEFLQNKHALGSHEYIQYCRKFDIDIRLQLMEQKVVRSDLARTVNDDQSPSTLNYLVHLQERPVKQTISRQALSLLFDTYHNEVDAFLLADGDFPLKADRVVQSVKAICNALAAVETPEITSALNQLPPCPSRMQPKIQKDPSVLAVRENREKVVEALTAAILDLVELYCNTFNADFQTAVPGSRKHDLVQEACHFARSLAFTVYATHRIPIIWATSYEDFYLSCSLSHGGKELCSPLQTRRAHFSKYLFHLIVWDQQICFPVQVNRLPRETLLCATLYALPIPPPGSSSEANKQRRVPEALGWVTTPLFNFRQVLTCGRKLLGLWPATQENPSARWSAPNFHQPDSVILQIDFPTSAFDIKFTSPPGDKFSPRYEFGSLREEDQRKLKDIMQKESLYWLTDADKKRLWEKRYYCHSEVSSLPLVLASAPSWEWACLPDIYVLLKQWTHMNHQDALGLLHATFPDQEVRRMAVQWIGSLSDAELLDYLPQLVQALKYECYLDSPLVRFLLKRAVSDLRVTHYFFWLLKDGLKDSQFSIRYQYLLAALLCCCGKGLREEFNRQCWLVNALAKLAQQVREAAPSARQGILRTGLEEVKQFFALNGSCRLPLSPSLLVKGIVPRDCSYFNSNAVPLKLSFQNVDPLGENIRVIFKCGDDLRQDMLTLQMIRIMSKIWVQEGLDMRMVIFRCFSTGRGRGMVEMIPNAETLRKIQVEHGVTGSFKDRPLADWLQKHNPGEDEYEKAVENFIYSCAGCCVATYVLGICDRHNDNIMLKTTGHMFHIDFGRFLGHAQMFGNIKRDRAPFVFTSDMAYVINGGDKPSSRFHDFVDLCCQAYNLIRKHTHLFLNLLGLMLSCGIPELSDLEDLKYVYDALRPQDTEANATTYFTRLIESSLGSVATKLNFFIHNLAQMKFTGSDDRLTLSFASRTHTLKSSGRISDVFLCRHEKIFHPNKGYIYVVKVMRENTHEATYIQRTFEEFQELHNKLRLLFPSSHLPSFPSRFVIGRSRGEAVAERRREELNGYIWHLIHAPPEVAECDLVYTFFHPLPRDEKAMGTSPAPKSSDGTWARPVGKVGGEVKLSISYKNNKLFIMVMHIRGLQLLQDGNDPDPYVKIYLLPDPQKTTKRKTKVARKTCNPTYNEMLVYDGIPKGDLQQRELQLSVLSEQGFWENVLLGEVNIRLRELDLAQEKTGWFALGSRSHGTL
Sequence of Class III PI3K hVPS34 (Q8NEB9 whole entry): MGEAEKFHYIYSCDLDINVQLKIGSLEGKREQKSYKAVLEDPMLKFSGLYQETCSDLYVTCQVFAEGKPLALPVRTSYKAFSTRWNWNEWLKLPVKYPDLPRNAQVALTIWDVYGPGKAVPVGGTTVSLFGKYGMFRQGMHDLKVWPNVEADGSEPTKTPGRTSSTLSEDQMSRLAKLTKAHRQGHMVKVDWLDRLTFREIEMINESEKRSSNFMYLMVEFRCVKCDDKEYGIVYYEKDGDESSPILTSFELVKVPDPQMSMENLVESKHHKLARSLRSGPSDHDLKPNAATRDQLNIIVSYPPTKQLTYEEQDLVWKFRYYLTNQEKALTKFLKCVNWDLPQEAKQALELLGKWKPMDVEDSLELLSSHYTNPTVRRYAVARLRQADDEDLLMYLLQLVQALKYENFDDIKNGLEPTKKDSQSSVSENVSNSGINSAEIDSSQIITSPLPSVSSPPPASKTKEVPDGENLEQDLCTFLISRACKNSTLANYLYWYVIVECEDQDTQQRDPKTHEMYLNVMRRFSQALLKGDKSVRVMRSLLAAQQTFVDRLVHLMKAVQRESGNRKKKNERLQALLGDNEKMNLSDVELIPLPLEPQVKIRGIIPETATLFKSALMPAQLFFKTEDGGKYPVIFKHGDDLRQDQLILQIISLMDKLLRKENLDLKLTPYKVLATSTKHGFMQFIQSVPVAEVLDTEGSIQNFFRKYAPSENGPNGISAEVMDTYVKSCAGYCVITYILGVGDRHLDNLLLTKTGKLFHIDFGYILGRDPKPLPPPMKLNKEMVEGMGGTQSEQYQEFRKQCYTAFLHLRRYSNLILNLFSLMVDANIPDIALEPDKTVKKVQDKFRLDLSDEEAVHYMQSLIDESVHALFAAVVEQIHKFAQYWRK

CC(Nc1ncnc2[nH]cnc12)c1nc2ccc(F)cc2c(=O)n1-c1ccccc1 (stereo not drawn) [Compound II, 2-(1-(9H-purin-6-ylamino)ethyl)-6-fluoro-3-phenylquinazolin-4(3H)-one]
MM tumor growth (LB cells; 10 mg/kg or 30 mg/kg orally twice a day, n=7): significantly reduced | CD31 positive cells and microvessel density (LB cells; 30 mg/kg): significantly decreased | p-Akt and p-PDK-1 in tumor (LB cells; 30 mg/kg, immunohistochemical and immunoblot analysis): significantly inhibited | body weight (LB cells; mouse, in vivo): did not affect body weight | tumor growth (serum shuIL-6R) (INA-6 cells): significantly inhibited tumor growth

Cn1c(=O)n(-c2ccc(C(C)(C)C#N)cc2)c2c3cc(-c4cnc5ccccc5c4)ccc3ncc21 [NVP-BEZ-235]
IC50 (Class III PI3K hVPS34): 6 nM | IC50 (class II PI3K CIIbeta): 3 nM

Cn1cnc(N)c2ncnc1-2 [Compound 3-MA, 3-Methyladenine]
cytotoxicity in INA-6 and LB cells (INA-6 and LB cells): No cytotoxicity

CN(C)CC[C@H](CSc1ccccc1)Nc1ccc(S(=O)(=O)NC(=O)c2ccc(N3CCN(Cc4ccccc4-c4ccc(Cl)cc4)CC3)cc2)cc1[N+](=O)[O-] [ABT-737, reference compound]
CLL cell viability in stromal co-culture, single agent [1]: profound stroma-mediated resistance
